Tested on: melanoma B16F0 tumours
Assay: In vivo scintigraphic imaging of [125I]-labelled compounds
Parameters: species or system C57BL/6J mice
Settings: planar scintigraphy
Excerpt: C57BL/6J male mice (6-8 weeks old) were obtained from Charles River (l'Arbresle, France) and the B 16F0 syngenic melanoma from ATCC (no. CRL-6322). Primary melanoma model was induced by subcutaneous injection of B 16F0 murine melanoma cells in C57BL/6J mice. B 16F0 melanoma cell cultures were maintained as monolayers in Dulbecco's Modified Eagle's Medium (DMEM)/Glutamax (Invitrogen, Cergy Pontoise, France) supplemented with 10% fetal calf serum (Sigma, Saint Quentin Fallavier, France), 1% vitamins (Invitrogen, Cergy-Pontoise, France), 1 mM sodium pyruvate (Invitrogen), 1% non essential amino acids (Invitrogen), and 4 μg/mL of gentamycin base (Invitrogen). Cells were grown at 37° C. in a humidified incubator containing 5% CO2. For transplantation, cells in exponential growth phase were trypsinized, washed with phosphate buffer saline (PBS), and resuspended in PBS. C57BL/6J mice anesthetized by isoflurane (2%) inhalation were inoculated with 3×10^5 melanoma B16F0 cells in 0.1 mL of PBS by subcutaneous injection on the right flank.
In vivo scintigraphic imaging protocol was submitted and approved by the french regional ethical animal use committee (CEMEA, Auvergne, authorization no. CE18-09, 2010). Scintigraphic imaging of radioiodinated compounds in mice was performed using a gamma camera dedicated to small animal imaging (γIMAGER, Biospace Mesures, Paris, France). This camera consists of a R 3292 Hamamatsu position-sensitive photomultiplier having a continuous 4 mm thick×120 mm diameter CsI (Na) crystal leading to a 10 cm field of view. For ^125I imaging, the camera was equipped with parallel-hole collimator 1.8/0.2/20 (hole diameter/septum thickness/height in mm). All the acquisitions were performed with a 15% window centered on the 35 keV peak of ^125I.
On day 14 after tumour implantation, each [^125I]-labelled compound was administered intravenously via the tail vein with 3.7 MBq/mouse (range 3-8 animals/compounds). The injected activity to each mouse was also determined from scintigraphic imaging of the syringe before and after the injection of the radiotracer. At different times after administration (1 h, 3 h, 6 h, 24 h, 72 h, 5 d, 7 d, 10 d and 14 d), mice were anaesthetized by i.p. administration (200 μL/mouse) of a ketamine-xylazine mixture in saline: ketamine (100 mg/kg, Imalgene, Rhône Merieux, Lyon, France) and xylazine (10 mg/kg, Rompun, Bayer, France). A 10 min duration image was acquired on anesthetized mice placed in prone position over the collimator of the camera. Reproducibility in animal positioning for the serial images was achieved using a graduated reference grid.
Quantitative analysis of scintigraphic scans was performed using the GAMMAVISION+ software (Biospace Mesures, Paris, France). Regions of interest (ROIs) were manually drawn around the tumour, the whole body area, the bladder, the eyes, the submaxillary and thyroid glands and the controlateral muscle which was chosen as background. For each ROI, total activity, min and max pixel values, ROI size (in mm^2), average activity per mm^2 and standard deviation were obtained. These values were normalized to the injected activity. For the tumour, the activity was also normalized to the tumour weight as previously described (Miot-Noirault, Cancer biotherapy & radiopharmaceuticals, 24 (2009) 629-636) and expressed as percentage of injected dose per gram of tumour (% ID/g).

## CCN(CCNC(=O)c1cnc2cc([125I])ccc2n1)CCOCCOCCOCCF.Cl.Cl [[^125I]3]
1 h after i.v. injection
  % ID/g (tumour): 11.7 ± 2.2 % ID/g
3 h after i.v. injection
  % ID/g (tumour): 12.1 ± 1.7 % ID/g
6 h after i.v. injection
  % ID/g (tumour): 12.1 ± 1.9 % ID/g
24 h after i.v. injection
  % ID/g (tumour): 12.4 ± 2.3 % ID/g
72 h after i.v. injection
  % ID/g (tumour): 8.6 ± 3.6 % ID/g
5 d after i.v. injection
  % ID/g (tumour): 5.8 ± 2.4 % ID/g
7 d after i.v. injection
  % ID/g (tumour): 2.7 ± 0.8 % ID/g
10 d after i.v. injection
  % ID/g (tumour): 1.3 ± 0.4 % ID/g
14 d after i.v. injection
  % ID/g (tumour): 0.6 ± 0.3 % ID/g

## CCN(CCNC(=O)c1cnc2cc([125I])ccc2n1)CCOCCOCCOCCOCCOCCOCCOCCF [[^125I]5]
1 h after i.v. injection
  % ID/g (tumour): 6.8 ± 1.8 % ID/g
3 h after i.v. injection
  % ID/g (tumour): 7.8 ± 1.5 % ID/g
6 h after i.v. injection
  % ID/g (tumour): 7.2 ± 1.1 % ID/g
24 h after i.v. injection
  % ID/g (tumour): 6.8 ± 1.7 % ID/g
72 h after i.v. injection
  % ID/g (tumour): 3.8 ± 0.7 % ID/g
5 d after i.v. injection
  % ID/g (tumour): 2.7 ± 0.3 % ID/g
7 d after i.v. injection
  % ID/g (tumour): 1.5 ± 0.2 % ID/g
10 d after i.v. injection
  % ID/g (tumour): 0.8 ± 0.3 % ID/g
14 d after i.v. injection
  % ID/g (tumour): 0.3 ± 0.01 % ID/g

## CCN(CCNC(=O)c1cnc2cc([125I])ccc2n1)Cc1cn(CCF)nn1 [[^125I]7]
1 h after i.v. injection
  % ID/g (tumour): 13.0 ± 1.5 % ID/g
3 h after i.v. injection
  % ID/g (tumour): 14.5 ± 0.1 % ID/g
6 h after i.v. injection
  % ID/g (tumour): 15.9 ± 1.7 % ID/g
24 h after i.v. injection
  % ID/g (tumour): 15.6 ± 3.4 % ID/g
72 h after i.v. injection
  % ID/g (tumour): 11.0 ± 0.7 % ID/g
5 d after i.v. injection
  % ID/g (tumour): 8.6 ± 0.4 % ID/g
7 d after i.v. injection
  % ID/g (tumour): 5.3 ± 0.8 % ID/g
10 d after i.v. injection
  % ID/g (tumour): 3.7 ± 0.3 % ID/g
14 d after i.v. injection
  % ID/g (tumour): 1.8 ± 0.4 % ID/g
